According to the Kinase Knowledgebase extract (Sharma et al. 2016):

Key:
PIK3CA (human) = PIK3CA (human) (UniProt P42336); experiment: Inhibition of PIK3CA Kinase Activity
PIK3CG = PIK3CG (UniProt P48736); experiment: Inhibition of PIK3CG Kinase Activity
PIK3CD (Human) = PIK3CD (Human) (UniProt O00329); experiment: Inhibition of PIK3CD Kinase Activity
PIK3CB (Human) [1] = molecular target: PIK3CB (Human) (UniProt P42338); experiment: Inhibition of CD9 Antibody Induced Platelet Aggregation
PIK3CB (Human) [2] = molecular target: PIK3CB (Human) (UniProt P42338); experiment: Inhibition of Platelet Thrombus Formation under Flow
PIK3CB (Human) [3] = molecular target: PIK3CB (Human) (UniProt P42338); experiment: Assessment of Neutrophil ROS Response in Human Whole Blood; settings: neutrophils
PIK3CB (Human) [4] = molecular target: PIK3CB (Human) (UniProt P42338); experiment: Inhibition of U937 Cell Proliferation
EGFR = EGFR (UniProt P00533)
CDK2 = CDK2 (UniProt P24941)
MAPK14 = MAPK14 (UniProt Q16539)
MAPK14, sequence (Q16539 whole entry, looked up): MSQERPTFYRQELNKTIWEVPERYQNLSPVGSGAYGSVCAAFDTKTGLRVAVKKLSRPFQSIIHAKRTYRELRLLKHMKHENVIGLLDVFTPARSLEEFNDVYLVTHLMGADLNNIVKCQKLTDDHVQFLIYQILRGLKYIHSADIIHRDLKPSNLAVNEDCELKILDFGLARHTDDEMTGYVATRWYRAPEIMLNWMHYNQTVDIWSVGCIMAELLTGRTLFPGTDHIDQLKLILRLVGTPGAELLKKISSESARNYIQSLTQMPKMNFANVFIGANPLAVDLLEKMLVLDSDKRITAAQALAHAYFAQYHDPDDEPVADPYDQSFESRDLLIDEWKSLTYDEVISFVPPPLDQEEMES

PIK3CG, sequence (P48736 whole entry, looked up): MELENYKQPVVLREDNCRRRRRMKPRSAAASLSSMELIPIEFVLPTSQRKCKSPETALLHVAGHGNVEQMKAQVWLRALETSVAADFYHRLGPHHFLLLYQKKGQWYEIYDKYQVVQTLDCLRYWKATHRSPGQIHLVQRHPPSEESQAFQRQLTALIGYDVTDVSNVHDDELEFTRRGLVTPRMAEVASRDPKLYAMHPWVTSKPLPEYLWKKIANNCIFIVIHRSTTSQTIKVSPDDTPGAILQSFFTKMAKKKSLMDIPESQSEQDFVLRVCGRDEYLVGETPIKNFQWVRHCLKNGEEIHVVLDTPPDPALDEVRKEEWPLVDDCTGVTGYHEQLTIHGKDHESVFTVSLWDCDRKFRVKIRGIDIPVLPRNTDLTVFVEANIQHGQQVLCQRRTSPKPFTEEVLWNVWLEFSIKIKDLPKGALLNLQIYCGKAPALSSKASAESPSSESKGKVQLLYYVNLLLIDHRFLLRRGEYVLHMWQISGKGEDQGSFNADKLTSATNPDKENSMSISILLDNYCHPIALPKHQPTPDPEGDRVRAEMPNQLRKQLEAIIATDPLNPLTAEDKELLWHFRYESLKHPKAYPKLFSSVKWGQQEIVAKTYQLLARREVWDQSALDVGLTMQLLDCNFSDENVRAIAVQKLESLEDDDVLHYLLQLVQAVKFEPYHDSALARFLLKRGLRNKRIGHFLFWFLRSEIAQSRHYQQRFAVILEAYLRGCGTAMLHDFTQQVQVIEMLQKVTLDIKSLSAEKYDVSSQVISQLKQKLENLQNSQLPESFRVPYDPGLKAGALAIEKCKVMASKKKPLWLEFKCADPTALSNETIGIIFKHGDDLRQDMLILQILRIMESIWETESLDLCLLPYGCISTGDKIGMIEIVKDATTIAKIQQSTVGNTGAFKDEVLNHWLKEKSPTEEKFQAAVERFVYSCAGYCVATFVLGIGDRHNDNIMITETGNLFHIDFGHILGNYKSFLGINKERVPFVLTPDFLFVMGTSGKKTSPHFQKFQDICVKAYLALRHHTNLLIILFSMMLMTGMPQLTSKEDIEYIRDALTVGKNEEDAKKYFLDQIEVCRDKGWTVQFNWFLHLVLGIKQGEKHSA
PIK3CA (human), sequence (P42336 whole entry, looked up): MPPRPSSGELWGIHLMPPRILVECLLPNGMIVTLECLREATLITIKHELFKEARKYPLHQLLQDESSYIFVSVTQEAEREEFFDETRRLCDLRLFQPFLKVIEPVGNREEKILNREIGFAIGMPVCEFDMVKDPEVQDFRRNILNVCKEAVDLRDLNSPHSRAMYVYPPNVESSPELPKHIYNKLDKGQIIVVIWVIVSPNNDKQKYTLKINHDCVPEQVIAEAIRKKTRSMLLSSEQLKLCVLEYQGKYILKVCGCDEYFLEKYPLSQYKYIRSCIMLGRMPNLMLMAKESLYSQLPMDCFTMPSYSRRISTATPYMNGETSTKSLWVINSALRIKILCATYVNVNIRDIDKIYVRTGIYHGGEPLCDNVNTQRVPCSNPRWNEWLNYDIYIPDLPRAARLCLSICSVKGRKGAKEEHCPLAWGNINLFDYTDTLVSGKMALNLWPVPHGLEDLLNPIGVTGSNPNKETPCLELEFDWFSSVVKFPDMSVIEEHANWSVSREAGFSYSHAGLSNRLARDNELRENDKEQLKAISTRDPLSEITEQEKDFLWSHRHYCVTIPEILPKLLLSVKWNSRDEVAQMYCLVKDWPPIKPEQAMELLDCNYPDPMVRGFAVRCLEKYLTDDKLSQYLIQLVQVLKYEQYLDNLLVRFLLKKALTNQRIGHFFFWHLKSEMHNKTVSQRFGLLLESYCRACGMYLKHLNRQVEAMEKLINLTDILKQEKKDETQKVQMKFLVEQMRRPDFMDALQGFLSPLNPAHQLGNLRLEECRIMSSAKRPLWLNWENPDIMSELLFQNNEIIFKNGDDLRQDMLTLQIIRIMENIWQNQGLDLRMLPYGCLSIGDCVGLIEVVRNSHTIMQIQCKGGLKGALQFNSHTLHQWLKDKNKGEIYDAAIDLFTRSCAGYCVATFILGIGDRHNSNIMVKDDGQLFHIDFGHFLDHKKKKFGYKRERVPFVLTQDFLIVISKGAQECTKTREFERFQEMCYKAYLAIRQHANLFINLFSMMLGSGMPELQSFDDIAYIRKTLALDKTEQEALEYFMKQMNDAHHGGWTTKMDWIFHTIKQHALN
PIK3CD (Human), sequence (O00329 whole entry, looked up): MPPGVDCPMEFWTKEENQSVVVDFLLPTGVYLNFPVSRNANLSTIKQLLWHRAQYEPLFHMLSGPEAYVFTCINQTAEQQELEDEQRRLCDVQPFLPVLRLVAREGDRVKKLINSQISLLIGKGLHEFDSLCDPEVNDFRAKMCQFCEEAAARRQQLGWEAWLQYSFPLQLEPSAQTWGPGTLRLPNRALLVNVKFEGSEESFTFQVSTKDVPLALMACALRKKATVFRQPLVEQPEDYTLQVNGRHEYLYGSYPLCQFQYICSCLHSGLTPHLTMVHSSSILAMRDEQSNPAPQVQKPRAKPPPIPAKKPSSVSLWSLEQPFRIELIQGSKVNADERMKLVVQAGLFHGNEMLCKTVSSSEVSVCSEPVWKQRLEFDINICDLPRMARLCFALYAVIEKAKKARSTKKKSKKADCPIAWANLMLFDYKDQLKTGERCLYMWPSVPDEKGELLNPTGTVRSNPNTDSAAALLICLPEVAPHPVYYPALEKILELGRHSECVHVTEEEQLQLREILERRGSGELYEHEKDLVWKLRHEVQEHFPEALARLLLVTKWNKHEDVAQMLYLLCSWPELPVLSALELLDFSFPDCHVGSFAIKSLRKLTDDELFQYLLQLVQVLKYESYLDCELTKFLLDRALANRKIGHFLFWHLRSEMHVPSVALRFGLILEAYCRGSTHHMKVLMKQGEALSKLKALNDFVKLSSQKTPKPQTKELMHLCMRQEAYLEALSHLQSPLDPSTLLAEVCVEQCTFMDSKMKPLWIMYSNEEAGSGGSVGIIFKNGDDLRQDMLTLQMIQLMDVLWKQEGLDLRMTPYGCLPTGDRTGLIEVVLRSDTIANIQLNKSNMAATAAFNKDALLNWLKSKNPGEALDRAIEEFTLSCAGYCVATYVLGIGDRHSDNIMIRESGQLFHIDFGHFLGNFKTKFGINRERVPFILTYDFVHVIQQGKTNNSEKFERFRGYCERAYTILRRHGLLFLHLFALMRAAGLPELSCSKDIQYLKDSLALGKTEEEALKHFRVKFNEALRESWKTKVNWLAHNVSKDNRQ
PIK3CB (Human), sequence (P42338 whole entry, looked up): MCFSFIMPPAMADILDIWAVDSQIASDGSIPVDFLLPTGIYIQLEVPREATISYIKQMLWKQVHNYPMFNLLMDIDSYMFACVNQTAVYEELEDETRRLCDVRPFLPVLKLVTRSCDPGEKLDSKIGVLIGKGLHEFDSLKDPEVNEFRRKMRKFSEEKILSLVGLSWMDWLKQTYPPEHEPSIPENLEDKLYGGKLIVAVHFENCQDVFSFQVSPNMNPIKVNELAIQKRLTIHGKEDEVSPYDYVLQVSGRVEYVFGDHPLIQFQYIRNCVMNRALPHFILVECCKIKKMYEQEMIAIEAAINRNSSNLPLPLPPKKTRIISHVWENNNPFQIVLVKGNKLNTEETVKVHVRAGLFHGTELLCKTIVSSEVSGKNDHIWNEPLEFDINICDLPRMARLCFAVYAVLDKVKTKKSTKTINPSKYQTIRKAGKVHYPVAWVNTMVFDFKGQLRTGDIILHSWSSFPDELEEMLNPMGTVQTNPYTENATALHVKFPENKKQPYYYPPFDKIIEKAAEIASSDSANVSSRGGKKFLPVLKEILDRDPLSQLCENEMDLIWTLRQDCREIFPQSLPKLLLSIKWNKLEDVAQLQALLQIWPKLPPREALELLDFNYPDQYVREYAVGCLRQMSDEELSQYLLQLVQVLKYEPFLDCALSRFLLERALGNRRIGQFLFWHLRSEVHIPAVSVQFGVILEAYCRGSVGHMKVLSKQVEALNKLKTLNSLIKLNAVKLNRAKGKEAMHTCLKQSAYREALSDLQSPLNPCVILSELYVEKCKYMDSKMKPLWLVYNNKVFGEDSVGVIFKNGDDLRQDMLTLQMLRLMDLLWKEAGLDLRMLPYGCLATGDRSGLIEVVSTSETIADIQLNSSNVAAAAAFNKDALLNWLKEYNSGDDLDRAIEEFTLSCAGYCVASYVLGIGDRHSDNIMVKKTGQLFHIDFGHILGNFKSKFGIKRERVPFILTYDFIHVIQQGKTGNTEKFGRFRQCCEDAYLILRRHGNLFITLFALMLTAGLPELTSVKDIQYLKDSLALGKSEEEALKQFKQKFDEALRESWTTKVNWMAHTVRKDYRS

IC50 (PIK3CA (human)) [µM] | IC50 (PIK3CG) [µM] | IC50 (PIK3CD (Human)) [µM] | Structure (SMILES) | other results
> 5 | – | – | Cc1cccc(NC(C)c2cc(C)cn3c(=O)cc(N4CCOCC4)nc23)c1 (stereo not drawn) | –
> 5 | – | – | Cc1cc(CN(C)c2ccccc2)c2nc(N3CCOCC3)cc(=O)n2c1 | –
> 5 | – | – | Cc1cc(C(C)Nc2ccc(Cl)c(Cl)c2)c2nc(N3CCOCC3)cc(=O)n2c1 (stereo not drawn) | –
– | > 10 | > 10 | Cc1cc(-c2ccccc2)c2nc(-c3ccncc3)cc(=O)n2c1 | –
> 5 | – | – | Cc1cc(C(C)Nc2ccc(Cl)cc2)c2nc(N3CCOCC3)cc(=O)n2c1 (stereo not drawn) | –
> 5 | – | – | Cc1cc(C(C)Nc2cccc(Cl)c2)c2nc(N3CCOCC3)cc(=O)n2c1 (stereo not drawn) | –
> 5 | – | – | Cc1cc(C(C)Nc2cc(F)cc(F)c2)c2nc(N3CCOCC3)cc(=O)n2c1 (stereo not drawn) | –
– | – | – | Cc1cc(C(C)Nc2ccccc2)c2oc(-c3ccncc3)cc(=O)c2c1 (stereo not drawn) | IC50 (PIK3CB (Human) [1]): 0.1 µM; IC50 (PIK3CB (Human) [2]): 0.5 µM; IC50 (PIK3CB (Human) [3]): 0.005 µM; IC50 (PIK3CB (Human) [4]): 5 µM
– | 5 | 1 | CC(=O)Nc1ccccc1NCc1cc(C)cc2c(=O)cc(-c3ccncc3)oc12 | –
– | 10 | – | Cc1cc(COc2ccccc2)c2oc(-c3ccncc3)cc(=O)c2c1 | –
> 5 | – | – | Cc1cc(C(C)Nc2cccc(C(F)(F)F)c2)c2nc(N3CCOCC3)cc(=O)n2c1 (stereo not drawn) | –
– | 10 | 10 | Cc1cc(C(C)n2c(C(F)(F)F)nc3ccccc32)c2oc(-c3ccncc3)cc(=O)c2c1 (stereo not drawn) | –
> 5 | – | – | Cc1cc(C(C)Nc2ccccc2)c2nc(N3CCOCC3)cc(=O)n2c1 (stereo not drawn) | IC50 (EGFR): > 10 µM; IC50 (CDK2): > 10 µM; IC50 (MAPK14): > 10 µM
– | – | 10 | O=c1cc(-c2ccncc2)[nH]c2c(-c3ccccc3)cccc12 | –
– | – | 0.2 | O=c1cc(-c2ccncc2)oc2c(NCc3ccccc3)cccc12 | –
– | 10 | 10 | Cc1cc(CNc2ccccc2)c2oc(-c3ccncc3)cc(=O)c2c1 | –
– | 10 | – | Cc1cc(C(C)Nc2cccc(C(F)(F)F)c2)c2oc(-c3ccncc3)cc(=O)c2c1 (stereo not drawn) | –
– | 20 | – | Cc1cc(C(C)Oc2ccccc2)c2oc(-c3ccncc3)cc(=O)c2c1 (stereo not drawn) | –
– | 15 | 0.5 | CC(Nc1ccccc1N)c1cccc2c(=O)cc(-c3ccncc3)oc12 (stereo not drawn) | IC50 (PIK3CB (Human) [1]): 0.2 µM; IC50 (PIK3CB (Human) [2]): 0.25 µM; IC50 (PIK3CB (Human) [3]): 0.078 µM; IC50 (PIK3CB (Human) [4]): 20 µM
> 5 | – | – | Cc1cc(C(C)Nc2ccccn2)c2nc(N3CCOCC3)cc(=O)n2c1 (stereo not drawn) | –
– | 10 | – | O=c1cc(-c2ccncc2)oc2c(OCc3ccccc3)cccc12 | –
– | 20 | 1 | Cc1cc(N[C@H](C)c2ccccc2)c2nc(-c3ccncc3)cc(=O)n2c1 | –
